Laboratory results published in paper PMC12207590, “Substrate Specificity of the Organic Cation Transporters MATE1 and MATE2K and Functional Overlap with OCT1 and OCT2” (Journal of Medicinal Chemistry, 2025).
Where two headings read alike, the source gives them in different places.

Legend:
[1] = target: T1, MATE1 (Homo sapiens, UniProt Q96FL8); assay: Uptake ratio in MATE1-overexpressing HEK293 cells vs empty vector (2.5 μM, 1 min, HPLC-MS/MS); assay type: cell-based; set-up: key to MATE1 substrate*: 1 = substrate; 0 = no substrate
T1 sequence (Q96FL8 1-570): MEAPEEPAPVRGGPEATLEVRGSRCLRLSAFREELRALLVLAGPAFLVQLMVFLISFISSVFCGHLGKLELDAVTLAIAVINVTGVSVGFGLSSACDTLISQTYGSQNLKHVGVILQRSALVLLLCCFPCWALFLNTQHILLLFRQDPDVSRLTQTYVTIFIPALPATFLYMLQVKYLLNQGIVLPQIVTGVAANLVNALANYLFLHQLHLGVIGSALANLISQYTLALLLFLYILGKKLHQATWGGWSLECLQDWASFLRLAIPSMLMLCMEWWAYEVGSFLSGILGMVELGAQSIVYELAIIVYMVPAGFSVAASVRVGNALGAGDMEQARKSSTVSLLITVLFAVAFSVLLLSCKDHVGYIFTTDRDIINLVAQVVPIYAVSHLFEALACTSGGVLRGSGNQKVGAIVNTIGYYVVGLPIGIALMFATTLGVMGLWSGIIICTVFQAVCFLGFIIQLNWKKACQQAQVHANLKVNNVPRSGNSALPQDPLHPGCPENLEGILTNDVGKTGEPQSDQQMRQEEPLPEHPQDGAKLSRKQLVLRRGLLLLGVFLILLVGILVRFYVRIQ

[2] = target: MATE2K (Homo sapiens, UniProt Q86VL8); assay: Uptake ratio in MATE2K-overexpressing HEK293 cells vs empty vector (2.5 μM, 1 min, HPLC-MS/MS); assay type: cell-based; set-up: key to MATE2 substrate*: 1 = substrate; 0 = no substrate
Chain of MATE2K (Q86VL8 1-566 isoform Q86VL8-3): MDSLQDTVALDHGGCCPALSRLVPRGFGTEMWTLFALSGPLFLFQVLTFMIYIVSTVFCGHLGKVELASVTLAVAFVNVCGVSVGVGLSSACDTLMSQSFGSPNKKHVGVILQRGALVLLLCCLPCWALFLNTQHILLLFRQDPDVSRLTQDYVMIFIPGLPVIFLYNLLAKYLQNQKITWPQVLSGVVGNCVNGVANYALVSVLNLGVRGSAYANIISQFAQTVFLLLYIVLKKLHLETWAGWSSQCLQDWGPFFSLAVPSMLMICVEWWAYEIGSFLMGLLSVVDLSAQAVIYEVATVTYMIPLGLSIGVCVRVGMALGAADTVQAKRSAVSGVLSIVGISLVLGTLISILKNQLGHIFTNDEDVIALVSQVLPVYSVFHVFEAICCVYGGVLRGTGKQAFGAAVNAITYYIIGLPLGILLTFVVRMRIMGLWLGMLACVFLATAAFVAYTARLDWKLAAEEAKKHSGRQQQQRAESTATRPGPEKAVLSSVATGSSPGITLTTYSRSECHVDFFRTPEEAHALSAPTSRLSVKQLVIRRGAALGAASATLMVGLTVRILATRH

[3] = test system: hCMEC; assay: TS DPH hCMEC (Table S2); assay type: cell-based, human; set-up: scale not given here
[4] = uptake ratio MATE1-overexpressing vs empty-vector HEK293 cells, 2.5 μM, 1 min, mean
[5] = uptake ratio MATE2K-overexpressing vs empty-vector HEK293 cells, 2.5 μM, 1 min, mean
[6] = fold uptake over empty vector, 2.5 μM, 1 min

CCCCNc1ccc(C(=O)OCCN(C)C)cc1 [Tetracaine]
MATE1 [1, 4]: 1.12
MATE2 [2, 5]: 1.3

CC[N+](CC)(CC)CC [Tetraethyl ammonium (TEA), Tetraethyl ammonium]
MATE1 ratio in this study [1]: 25.44
MATE2K ratio in this study [2]: 6.73

CC[N+](CC)(CC)CC [Tetraethylammonium]
MATE1 [1]: 25.44
MATE2 [2]: 6.73

O=C1CCC(N2C(=O)c3ccccc3C2=O)C(=O)N1 (stereo not shown) [Thalidomide]
MATE1 [1, 4]: 0.85
MATE2 [2, 5]: 2.02

Cc1ncc(C[n+]2csc(CCOP(=O)(O)O)c2C)c(N)n1 [Thiamine monophosphate]
MATE1 [1, 4]: 1.05
MATE2 [2, 5]: 0.89

C/C=C(\C)C(=O)OC(CC(=O)[O-])C[N+](C)(C)C (stereo not shown) [Tiglylcarnitine]
MATE1 [1, 4]: 0.96
MATE2 [2, 5]: 0.76

C[C@@H]1CCN(C(=O)CC#N)C[C@@H]1N(C)c1ncnc2[nH]ccc12 [Tofacitinib]
MATE1 ratio in this study ([1]; Table S1, 2.5 μM, 1 min): 1.36
MATE1 [1, 4]: 1.36
MATE2K ratio in this study ([2]; Table S1, 2.5 μM, 1 min): 1.41
MATE2 [2, 5]: 1.41

COc1cccc(C2(O)CCCCC2CN(C)C)c1 (stereo not shown) [Tramadol]
MATE1 [1]: 1.13
MATE2 [2]: 1.44

CC(CN(C)C)CN1c2ccccc2CCc2ccccc21 (stereo not shown) [Trimipramine]
MATE1 [1, 4]: 1.19
MATE2 [2, 5]: 1.2

CN1[C@@H]2CC[C@H]1C[C@@H](OC(=O)c1c[nH]c3ccccc13)C2 [Tropisetron]
MATE1 [1, 4]: 1.22
MATE2 [2, 5]: 1.15

N[C@@H](Cc1c[nH]c2ccccc12)C(=O)O [Tryptophan]
MATE1 [1]: 0.82
MATE2 [2]: 1.07

CC(C)(C)NCC(O)c1ccccc1Cl (stereo not shown) [Tulobuterol]
MATE1 [1, 4]: 1.31
MATE2 [2, 5]: 1.74

OC(c1ccccc1)(c1ccccc1)C12CC[N+](CCOCc3ccccc3)(CC1)CC2 [Umeclidinium]
MATE1 [1, 4]: 4.54
MATE2 [2, 5]: 1.67

CC[C@@H]1CN(C(=O)NCC(F)(F)F)C[C@@H]1c1cnc2cnc3[nH]ccc3n12 [Upadacitinib]
MATE1 [1, 4]: 1.51
MATE2 [2, 5]: 1.27

COc1ccccc1N1CCN(CCCNc2cc(=O)n(C)c(=O)n2C)CC1 [Urapidil]
MATE1 [1, 4]: 1.19
MATE2 [2, 5]: 1.17

c1cnc2cc3c(cc2n1)[C@@H]1CNC[C@H]3C1 [Varenicline]
MATE1 ratio in this study ([1]; Table S1, 2.5 μM, 1 min): 1.20
MATE1 [1, 4]: 1.2
MATE2K ratio in this study ([2]; Table S1, 2.5 μM, 1 min): 1.30
MATE2 [2, 5]: 1.3

CC(=O)O[C@H]1C[C@@H]2CC[C@@H]3[C@H](CC[C@@]4(C)[C@H]3C[C@H]([N+]3(C)CCCCC3)[C@@H]4OC(C)=O)[C@@]2(C)C[C@@H]1N1CCCCC1 [Vecuronium]
MATE1 [1]: 8.32
MATE2 [2]: 4.72

COc1ccc([C@H](CN(C)C)C2(O)CCCCC2)cc1 [Venlafaxine (R)]
MATE1 [1]: 1.14
MATE2 [2]: 1.36

COc1ccc([C@@H](CN(C)C)C2(O)CCCCC2)cc1 [Venlafaxine (S)]
MATE1 [1]: 1.22
MATE2 [2]: 1.44

COc1ccc(C(CN(C)C)C2(O)CCCCC2)cc1 (stereo not shown) [Venlafaxine]
MATE1 [1]: 1.22
MATE2 [2]: 1.3

C=CCN1CCCC1CNC(=O)c1cc(S(N)(=O)=O)cc(OC)c1OC (stereo not shown) [Veralipride]
MATE1 [1, 4]: 6.39
MATE2 [2, 5]: 4.21

CCOc1ccccc1OCC1CNCCO1 (stereo not shown) [Viloxazine]
MATE1 [1]: 1.12
MATE2 [2]: 1.38

O=C(NCCNCC(O)COc1ccc(O)cc1)N1CCOCC1 (stereo not shown) [Xamoterol]
MATE1 [1, 4]: 7.62
MATE2 [2, 5]: 6.13

COC(=O)[C@@H]1[C@H]2C[C@H]3c4[nH]c5ccccc5c4CCN3C[C@@H]2CC[C@@H]1O [Yohimbin]
MATE1 [1, 4]: 1.11
MATE2 [2, 5]: 1.35

O=c1ncccn1[C@@H]1O[C@H](CO)[C@@H](O)[C@H]1O [Zebularine]
MATE1 substrate* ([1]; Table S4): 0
MATE1 [1, 4]: 1.12
MATE2 substrate* ([2]; Table S4): 0
MATE2 [2, 5]: 0.9

NC(N)=NCc1cccc(I)c1 [m-Iodobenzylguanidin]
MATE1 ratio [1, 6]: 3.53
MATE2K ratio [2, 6]: 2.28

NCCc1cccc(O)c1 [m-Tyramine]
MATE1 ratio [1, 6]: 8.90
MATE2K ratio [2, 6]: 1.31

Nc1ccc(N)cc1 [p-Phenylenediamine]
MATE1 ratio [1]: 1.04
MATE2K ratio [2]: 1.07

CNC(C)Cc1ccc(OC)cc1 (stereo not shown) [para-Methoxy-N-methylamphetamine]
MATE1 ratio [1]: 1.17
MATE2K ratio [2]: 1.52
TS DPH hCMEC [3]: 0.08

COc1ccc(CC(C)N)cc1 (stereo not shown) [para-Methoxyamphetamine]
MATE1 ratio [1]: 1.07
MATE2K ratio [2]: 1.25
TS DPH hCMEC [3]: 0.39

C[N+]1(C)[C@@H]2C[C@@H](OC(=O)C(O)(c3cccs3)c3cccs3)C[C@H]1[C@@H]1O[C@@H]12 [tiotropium]
MATE1 [1]: 27.4
MATE2 [2]: 1.94
